Measured values from BindingDB's records for doi:10.7270/Q2TX3CTT (Broad Institute, 2010).
Structures can show the parent of a compound that is named as a salt.

Target: Glycogen synthase kinase-3 beta (Homo sapiens, UniProt P49841)
Assay: GSK3beta kinase inhibitor potency, dose response, biochemical, luminescence, cell-free homogeneous, retest (AID 434954)

Glycogen synthase kinase-3 beta, sequence (P49841 whole entry): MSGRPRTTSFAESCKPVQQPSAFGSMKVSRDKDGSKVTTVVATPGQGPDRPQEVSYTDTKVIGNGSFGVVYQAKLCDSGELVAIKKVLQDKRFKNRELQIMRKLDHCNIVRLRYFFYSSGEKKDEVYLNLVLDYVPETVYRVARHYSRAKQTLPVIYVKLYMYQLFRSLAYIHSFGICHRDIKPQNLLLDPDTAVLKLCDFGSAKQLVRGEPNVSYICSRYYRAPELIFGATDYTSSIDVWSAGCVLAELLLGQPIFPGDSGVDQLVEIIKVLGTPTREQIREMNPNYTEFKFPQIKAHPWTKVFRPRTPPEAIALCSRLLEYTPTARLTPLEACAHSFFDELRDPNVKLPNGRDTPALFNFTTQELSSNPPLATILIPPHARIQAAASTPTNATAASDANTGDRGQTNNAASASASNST

Structure (SMILES) | EC50
O=C(Nc1cccc(Cl)c1)c1ccc(NCCCN2CCOCC2)c([N+](=O)[O-])c1 [SMR000194818] | > 300 µM
COC(=O)c1ccc(-n2c(O)cc(N3CCN(C(=O)c4ccco4)CC3)c2O)cc1 [MLS000027707] | > 300 µM
COc1ccc(-c2nc(-c3ccccc3)[nH]c(=O)c2C#N)cc1 [SMR000168458] | > 300 µM
CCOC(=O)c1ccc(NS(=O)(=O)c2ccc3c(c2)NC(=O)CCS3)cc1 [SMR000630284] | > 300 µM
Cc1cc(C)c(NC(=O)c2ccc(S(=O)(=O)N3CCOCC3)cc2)c(C)c1 [MLS000100511] | > 300 µM
C=CCNc1nc(N)c([N+](=O)[O-])c(NC2CCCCC2)n1 [4-N-cyclohexyl-5-nitro-2-N-prop-2-enylpyrimidine-2,4,6-triamine] | 5.45 µM
CN(C)Cc1c(C(=O)NN=Cc2ccccc2OCc2c(F)cccc2Cl)nnn1-c1nonc1N [1-(4-azanyl-1,2,5-oxadiazol-3-yl)-N-[[2-[(2-chloranyl-6-fluoranyl-phenyl)methoxy]phenyl]methylideneamino]-5-[(dimethylamino)methyl]-1,2,3-triazole-4-carboxamide] | 0.116 µM
O=C1c2ccccc2-c2onc3ccc(NCCCn4ccnc4)c1c23 [SMR000044769] | 167 µM
COc1ccccc1-c1cc(=O)c2c(O)ccc([N+](=O)[O-])c2o1 [MLS000518626] | > 300 µM
NC1=N/C(=N\c2ccccc2)c2ccccc21 [MLS000057025] | > 300 µM
O=C(Cc1ccc([N+](=O)[O-])cc1)Nc1ccc2c(c1)C(=O)NC2=O [SMR000291894] | > 300 µM
CCCN(CCC)Cc1c(C(=O)NN=C/C(C)=C\c2ccccc2)nnn1-c1nonc1N [1-(4-azanyl-1,2,5-oxadiazol-3-yl)-5-[(dipropylamino)methyl]-N-[[(Z)-2-methyl-3-phenyl-prop-2-enylidene]amino]-1,2,3-triazole-4-carboxamide] | > 300 µM
COCCCNc1nc(N)c([N+](=O)[O-])c(NCc2ccccc2)n1 | 5.95 µM
COCCNc1nc(N)c([N+](=O)[O-])c(NC2CCCCC2)n1 | 5.35 µM
CN1CCc2c(sc3c2c(=O)n(-c2ccccc2)c2nnc(SCc4ccccc4)n32)C1 [SMR000039895] | > 300 µM
CC(=O)Nc1cc(-c2ccc(Cl)cc2)n[nH]1 [N-[5-(4-chlorophenyl)-1H-pyrazol-3-yl]acetamide] | 23.8 µM
COC(=O)COc1ccc2occ(C(C)=O)c2c1 | > 300 µM
COc1ccc(-n2c(=O)c3c4c(sc3n3c(=S)[nH]nc23)CCC4)cc1 [1-Mercapto-4-(4-methoxy-phenyl)-7,8-dihydro-4H,6H-9-thia-2,3,4,9b-tetraaza-cyclopenta[b]-as-indace n-5-one] | 61.7 µM
CCCCc1cc(=O)oc2cc(O)cc(O)c12 [4-butyl-5,7-dihydroxy-2H-chromen-2-one] | 15.2 µM
O=C(CS(=O)(=O)c1ccccc1)Nc1ncc([N+](=O)[O-])s1 [2-(benzenesulfonyl)-N-(5-nitro-1,3-thiazol-2-yl)acetamide] | > 300 µM
Cc1ccccc1N(CC(=O)NN=Cc1cc(Br)c(C)o1)S(C)(=O)=O [N-[(4-bromo-5-methylfuran-2-yl)methylideneamino]-2-(2-methyl-N-methylsulfonylanilino)acetamide] | > 300 µM
O=C(NC(Cc1ccccc1)c1ccc2c(c1)OCCCO2)c1ccccc1 (centres undefined) | > 300 µM
CC(=O)Nc1ccc(S(=O)(=O)Nc2ccc3c(c2)OCCO3)cc1Cl [MLS000850184] | > 300 µM

Structure (SMILES) | EC50
CC1(C)CC(=O)C2C(=Nc3cc4c(cc3C2c2ccc(F)cc2)OCO4)C1 (centres undefined) [MLS000528763] | > 300 µM
COC(=O)c1nnn(-c2nonc2N)c1COc1ccc(C=O)cc1OC [methyl 1-(4-azanyl-1,2,5-oxadiazol-3-yl)-5-[(4-methanoyl-2-methoxy-phenoxy)methyl]-1,2,3-triazole-4-carboxylate] | 25.9 µM
Cc1ccc2sc(N(CCN(C)C)C(=O)c3ccc(S(=O)(=O)N4CC(C)OC(C)C4)cc3)nc2c1C (centres undefined) [N-[2-(dimethylamino)ethyl]-N-(4,5-dimethyl-1,3-benzothiazol-2-yl)-4-(2,6-dimethylmorpholin-4-yl)sulfonyl-benzamide;hydrochloride] | > 300 µM
CCOC(=O)COC(=O)c1ccc(O)cc1 [(2-ethoxy-2-oxoethyl) 4-hydroxybenzoate] | > 300 µM
Cc1nn(CC(=O)NCCCN2CCCCC2)c(=O)c2cccn12 [2-(4-methyl-1-oxidanylidene-pyrrolo[1,2-d][1,2,4]triazin-2-yl)-N-(3-piperidin-1-ylpropyl)ethanamide] | > 300 µM
CS(=O)(=O)c1ccc2nc(NC(=O)CN3CCN(Cc4ccccc4)CC3)sc2c1 [MLS000064538] | > 300 µM
CCN1CCCC1CNC(=O)c1ccc2c(c1)NC(=O)/C(=C\c1ccc(OC)c(OC)c1)S2 (centres undefined) [MLS001030689] | 6.6 µM
c1ccc(Nc2nc(NCCN3CCOCC3)nc(Nc3ccccc3)n2)cc1 | > 300 µM
Cc1ccc(NC(=O)CSCc2ccc(F)cc2)cc1 [MLS000701707] | > 300 µM
O=C1C(=O)N(c2ccccn2)C(c2ccc(Br)cc2)C1C(=O)c1ccc(Br)cc1 (centres undefined) | > 300 µM
O=C(NCCO)Nc1ccc2nsnc2c1 [MLS000708760] | > 300 µM
COc1ccccc1Nc1nc(N(C)c2ccccc2)nc(N)c1[N+](=O)[O-] [SMR000542836] | > 300 µM
Oc1ccc(CN=Nc2ncc(Br)cn2)c(O)c1 | 12.3 µM
CN1CCN(CCNC(=O)Nc2ccccc2[N+](=O)[O-])CC1 [N-[2-(4-methylpiperazin-1-yl)ethyl]-N'-(2-nitrophenyl)urea] | > 300 µM
C=CCN1C(=O)NC(=O)/C(=C/c2ccc(OCC(=O)Nc3ccc(C)cc3)cc2)C1=O [SMR000673044] | > 300 µM
CCCCc1cc(=O)oc2cc(OCC(=O)N(CC)CC)ccc12 | > 300 µM
CCCNc1nc(N)nc(-c2cc(Cl)ccc2OC)n1 [MLS000538216] | > 300 µM
COCCn1c(SCC(=O)Nc2ccc(Cl)cn2)nnc1-c1ccncc1 [N-(5-chloranylpyridin-2-yl)-2-[[4-(2-methoxyethyl)-5-pyridin-4-yl-1,2,4-triazol-3-yl]sulfanyl]ethanamide] | 49.2 µM
O=C(O)c1cccc(CSc2nnc(-c3cccnc3)o2)c1 [SMR000503811] | > 300 µM
O=C(Nc1ccc(Cl)c(Cl)c1)Nc1ccccn1 [SMR000515062] | 47.2 µM
CC1=Nc2ncnn2C(c2ccco2)C1C(=O)OCc1ccccc1 (centres undefined) [benzyl 7-(furan-2-yl)-5-methyl-1,7-dihydro-[1,2,4]triazolo[1,5-a]pyrimidine-6-carboxylate] | 40.7 µM
COC(=O)c1ccc2c(=O)n(CC3CCCO3)c(SCC(=O)Nc3ccccc3Cl)nc2c1 (centres undefined) [2-[[2-(2-chloroanilino)-2-keto-ethyl]thio]-4-keto-3-(tetrahydrofurfuryl)quinazoline-7-carboxylic acid methyl ester] | > 300 µM
CCOc1cc(C2c3c(n[nH]c3C)N=C3CC(C)(C)CC(=O)C32)ccc1O (centres undefined) [MLS000736418] | 3.32 µM

Structure (SMILES) | EC50
CC(C)Nc1nnc(SCC(=O)NCc2ccc3c(c2)OCO3)s1 [SMR000375706] | > 300 µM
C=C(Cl)COc1ccc2c(CCCC)cc(=O)oc2c1 [4-butyl-7-(2-chloranylprop-2-enoxy)chromen-2-one] | > 300 µM
CCCc1cc(=O)oc2cc(C)c(CN3CCCC3)c(O)c12 [5-hydroxy-7-methyl-4-propyl-6-(1-pyrrolidinylmethyl)-2H-chromen-2-one] | > 300 µM
Cc1[nH]nc2c1C(c1ccc(F)cc1)C1C(=O)CC(C)(C)CC1=N2 (centres undefined) [4-(4-fluorophenyl)-3,7,7-trimethyl-1,4,6,7,8,9-hexahydro-5H-pyrazolo[3,4-b]quinolin-5-one] | 3.93 µM
Cc1ccnc(NC(=O)CCC(=O)N(CC(=O)NCCc2ccccc2)Cc2cccs2)c1 [N-(4-methylpyridin-2-yl)-N'-[2-oxidanylidene-2-(2-phenylethylamino)ethyl]-N'-(thiophen-2-ylmethyl)butanediamide] | 21.3 µM
CC[n+]1c(/C=C/N(C)c2ccccc2)oc2ccccc21 [SMR000184373] | > 300 µM
COc1cccc(N(CC(=O)NCC2CCCO2)C(=O)CCC(=O)Nc2nccs2)c1 (centres undefined) [N'-(3-methoxyphenyl)-N'-[2-oxo-2-(oxolan-2-ylmethylamino)ethyl]-N-(1,3-thiazol-2-yl)butanediamide] | > 300 µM
CC(C)c1c(C(=O)NN=Cc2ccoc2)nnn1-c1nonc1N [MLS001139450] | > 300 µM
O=C(O)c1cc(C2CC2)nc2ccccc12 [2-cyclopropyl-4-quinolinecarboxylic acid] | > 300 µM
CN(C)Cc1c(C(=O)NN=Cc2ccncc2)nnn1-c1nonc1N | 6.17 µM
O=C(COC(=O)C1CCN(/C=C/C(=O)C(F)(F)F)CC1)Nc1ccccc1 [MLS000390182] | > 300 µM
Cc1ccc(SCC(=O)N2CC(C)OC(C)C2)cc1 (centres undefined) | > 300 µM
Fc1ccc(CSc2ccc3nnc(-c4cccnc4)n3n2)cc1 [MLS000624295] | > 300 µM
CCOC(=O)CC(=O)CSc1ccc2nnc(-c3cccc(F)c3)n2n1 [ethyl 4-[[3-(3-fluorophenyl)-[1,2,4]triazolo[4,3-b]pyridazin-6-yl]sulfanyl]-3-oxobutanoate] | > 300 µM
O=C(CSc1nnc(-c2cccnc2)n1-c1ccccc1)Nc1ccc2c(c1)OCO2 [MLS000050858] | > 300 µM
Cc1ccc(S(=O)(=O)CCSc2n[nH]c(=O)n2-c2ccc3c(c2)OCCO3)cc1 [SMR000456166] | 74.4 µM
Cc1ccc(OCC(=O)N/N=C/c2ccc(O)cc2)c([N+](=O)[O-])c1 [2-(4-methyl-2-nitro-phenoxy)-N'-[(4-oxidanylidenecyclohexa-2,5-dien-1-ylidene)methyl]ethanehydrazide] | 7.18 µM
COC(=O)CSc1nnc(-c2ccncc2)o1 [methyl 2-[(5-pyridin-4-yl-1,3,4-oxadiazol-2-yl)sulfanyl]ethanoate] | > 300 µM
NC(=O)c1ccc(N2CCCCCC2)c([N+](=O)[O-])c1 [MLS000688695] | > 300 µM
CC(C)C(=O)NC(C)C(c1cccs1)N1CCN(c2ccccc2)CC1 (centres undefined) [SMR000016589] | > 300 µM
COc1cc([CH+][N-]NC(=O)c2ccncc2)ccc1Oc1ccc([N+](=O)[O-])cn1 [N-[[3-methoxy-4-[(5-nitro-2-pyridinyl)oxy]phenyl]methylideneamino]-4-pyridinecarboxamide] | > 300 µM
NC(=O)c1c(NC(=O)c2ccncc2)sc2c1CCCC2 | > 300 µM
c1ccc(CCNCC2COc3ccccc3O2)cc1 (centres undefined) | > 300 µM
